Source: PMC7359024, “Synthesis, Structure–Activity Relationship, and Mechanistic Studies of Aminoquinazolinones Displaying Antimycobacterial Activity” (ACS Infectious Diseases, 2020)
Values after ≈ are worked out from the molar mass of the structure shown. Read-outs that look alike come from different tables or passages of the source.

How the values were obtained:
[1] = in vivo; design: species or system C57/BL6 mice; details: for bioavailability: oral 20 mg/kg vs iv 5 mg/kg
Experimental: In vivo PK studies were performed on compound 1 (sulfone) and compound 2 (sulfoxide) (Table 3). All studies and procedures were conducted with prior approval of the animal ethics committee of the University of Cape Town (approval numbers 013/028 and 014/028) in accordance with the South African National Standard (SANS 10386:008) for the Care and Use of Animals for Scientific Purposes and guidelines from the Department of Health. […]
the South African National Standard (SANS 10386:008) for the Care and Use of Animals for Scientific Purposes,6 and guidelines from the Department of Health.7
The pharmacokinetic parameters of the compounds were determined by dosing the compound to C57/BL6 mice through oral (n = 3 mice) and intravenous (n = 3 mice) administration. For oral administration, the compounds were formulated in 0.5% hydroxypropylmethyl cellulose (HPMC) in Phosphate buffered saline pH 7.4. The intravenous doses were administered in dimethylacetamide-polyethylene glycol 400-polypropylene glycol (DMA-PEG400-PPG) (10:30:60) Blood samples were collected via tail bleeding at predetermined time points and stored at -80°C until liquid chromatography-tandem mass spectrometry (LC-MS/MS) analysis.
The whole-blood concentrations of the compounds were determined using a quantitative LC- […]
method, using ice -cold acetonitrile.
After centrifugation, the supernatant was transferred to 96 -well plates for analysis. LC -MS/MS was carried out on an AB Sciex 400 0 QTrap coupled to an Agilent 1200 high -performance liquid chromatograph (HPLC). Separation was achieved on a Kinetex PFP column column, using 0.1% formic acid in water as the aqueous mobile phase and 0.1% formic acid in acetonitrile as the organic mobile phase. The analytical limit of quantitation (LOQ) was 1 ng/ml. LC-MS/MS method accuracy and precision were 15% (nom) for the standards and […]
Concentration-versus-time data were used to derive the PK parameters using noncompartmental analys is on PK Solutions 2.0 (Summit Research Services, Montrose, CO,

[2] = in vitro; details: Chinese hamster
[3] = assay type: in vitro ADME; details: for Metabolic Stability H (% Rem.): human liver microsomes; for Metabolic Stability M (% Rem.): mouse liver microsomes; for Metabolic Stability R (% Rem.): rat liver microsomes
Experimental: 3.2. Microsomal stability
The metabolic stability assay was performed in duplicate in a 96-well micro titre plate. The test compounds (0.1 μM) were incubated individually in mouse, rat and pooled human liver microsomes ((final protein concentration of 0.4 mg/mL; XenoTech, Lenexa, KS ), suspended in 0.1M phosphate buffer (pH 7.4) at 37 °C for predetermined time points, in the presence and absence of the cofactor NADPH (1 mM). Reactions were quenched by adding ice cold acetonitrile containing internal standard (carbamazepine, 0.0236 µg/mL). T he samples were centrifuged and test compound in the supernatant were analysed by means of LC -MS/MS (Agilent Rapid Resolution HPLC, AB SCIEX 4500 MS ). The relative loss of parent compound over time was monitored and plots (concentration vs. time) were prepared per compound to determine the first order rate constant for compound depletion. This was in turn used to calculate half-life, in vitro intrinsic clearance and in vivo hepatic extraction ratio. Metabolite searches were not conducted during the metabolic stability assay. 5

[4] = test system: Mtb H37Rv strain; experiment: MIC90 determination in GASTE-Fe media (broth microdilution); assay type: cell-based, Mycobacterium tuberculosis; details: Mtb H37Rv, replicating conditions, GASTE-Fe media, read 14 days after incubation, read-out: MIC90 GASTE-Fe
[5] = physchem; assay type: physicochemical; details: kinetic solubility, pH 7.4, HPLC method
Experimental: The kinetic solubility assay was performed using a miniaturised shake flask method. 10 mM stock solutions of each of the test compounds were used to prepare calibration standards (10-220μM) in DMSO. The same 10mM stock solutions were accurately dispensed in duplicate into 96-well plates and the DMSO dried down (MiVac GeneVac, 90 min, 37 °C). Thereafter, the samples were reconstituted (200 µM) in phosphate buffered saline (pH 7.4) and shaken (20 hours, 25 °C). The solutions were filtered and analysed by means of HPLC -DAD (Agilent 1200 Rapid Resolution HPLC with a diode array detector). […]

[6] = Mycobacterium tuberculosis, H37RV, 336 h

Row | Structure (SMILES) | IC50 [2] | Metabolic Stability H (% Rem.) [3] | Metabolic Stability M (% Rem.) [3] | Metabolic Stability R (% Rem.) [3] | MIC90 [4, 6] | solubility ([5]; 25 °C, pH 7.4, aqueous buffer) | also measured
1 | CS(=O)(=O)c1cccc(-c2ccc3nc(N)n(-c4ccc(C(F)(F)F)cc4)c(=O)c3c2)c1 [compound 1, 2-Amino-6-(3-(methylsulfonyl)phenyl)-3-(4-(trifluoromethyl)phenyl)quinazolin-4(3H)-one] | > 100 µM | 97 % Rem. | 92 % Rem. | 100 % Rem. | < 0.244 µM | < 5 µM | AUC0–∞ ([1]; 1 as metabolite of 2, mouse, oral 20 mg/kg of compound 2): 18430 min·μmol·L^–1; Vd ([1]; C57/BL6, in vivo, mouse, iv 5 mg/kg): 0.81 L/kg; clearance ([1]; C57/BL6, in vivo, mouse, iv 5 mg/kg, read-out: CLtotal): 1.3 mL/min/kg; half-life ([1]; C57/BL6, in vivo, mouse, iv 5 mg/kg, read-out: apparent t1/2 (converted)): 7.3 h; Tmax ([1]; C57/BL6, in vivo, mouse, oral 20 mg/kg): 3 h; Cmax ([1]; C57/BL6, in vivo, mouse, oral 20 mg/kg, whole blood): 5.98 µM; bioavailability ([1]; C57/BL6, mouse, in vivo, read-out: bioavailability): 18%; AUC0–∞ ([1]; mouse, iv 5 mg/kg): 8589 min·μmol·L^–1; AUC0–∞ ([1]; mouse, oral 20 mg/kg): 7249 min·μmol·L^–1; bioavailability ([1]; mouse): 18.4%; MIC90 [4]: <0.244 µM
2 | CN(C)CCNC(=O)c1cccc(-c2ccc3nc(N)n(-c4ccc(C(F)(F)F)cc4)c(=O)c3c2)c1 [compound 13] | > 50 µM | 82 % Rem. | 56 % Rem. | 40 % Rem. | 0.82 µM (≈ 0.406 µg/mL) | 168 µM (≈ 83.2 µg/mL) | 
3 | Nc1nc2ccc(-c3cccc(C(=O)NCCO)c3)cc2c(=O)n1-c1ccc(C(F)(F)F)cc1 [compound 14] | > 50 µM | 81 % Rem. | 90 % Rem. | 83 % Rem. | 1.03 µM (≈ 0.482 µg/mL) | 192 µM (≈ 89.9 µg/mL) | solubility [5]: 193 µM (≈ 90.4 µg/mL)
4 | Nc1nc2ccc(-c3cccc(C(=O)NCCN4CCOCC4)c3)cc2c(=O)n1-c1ccc(C(F)(F)F)cc1 [compound 15, 3-(2-amino-4-oxo-3-(4-(trifluoromethyl)phenyl)-3,4-dihydroquinazolin-6-yl)-N-(2-morpholinoethyl)benzamide] | 8.77 µM | 51 % Rem. | 59 % Rem. | 62 % Rem. | 1.45 µM (≈ 0.779 µg/mL) | < 5 µM | 
5 | Nc1nc2ccc(-c3cccc(C(=O)N4CCOCC4)c3)cc2c(=O)n1-c1ccc(C(F)(F)F)cc1 [compound 16, 2-Amino-6-(3-(morpholine-4-carbonyl)phenyl)-3-(4-(trifluoromethyl)phenyl)quinazolin-4(3H)-one] | > 50 µM | 71 % Rem. | 78 % Rem. | 77 % Rem. | 4.93 µM (≈ 2.44 µg/mL) | 56 µM (≈ 27.7 µg/mL) | 
6 | Nc1nc2ccc(-c3cccc(C(=O)N4CCSCC4)c3)cc2c(=O)n1-c1ccc(C(F)(F)F)cc1 [compound 18, 2-Amino-6-(3-(thiomorpholine-4-carbonyl)phenyl)-3-(4-(trifluoromethyl)phenyl)quinazolin-4(3H)-one] | > 50 µM | 8 % Rem. | 22 % Rem. | 23 % Rem. | 0.656 µM (≈ 0.335 µg/mL) | 46 µM (≈ 23.5 µg/mL) | 
7 | CN1CCN(C(=O)c2cccc(-c3ccc4nc(N)n(-c5ccc(C(F)(F)F)cc5)c(=O)c4c3)c2)CC1 [compound 19] | > 50 µM | 97 % Rem. | 94 % Rem. | 86 % Rem. | 1.57 µM (≈ 0.797 µg/mL) | 51 µM (≈ 25.9 µg/mL) | 
8 | Nc1nc2ccc(-c3cccc(C(=O)O)c3)cc2c(=O)n1-c1ccc(C(F)(F)F)cc1 [compound 20] | > 100 µM | 99 % Rem. | 98 % Rem. | 97 % Rem. | 112 µM (≈ 47.6 µg/mL) | 29 µM (≈ 12.3 µg/mL) | 
9 | Nc1nc2ccc(-c3cncnc3)cc2c(=O)n1-c1ccc(C(F)(F)F)cc1 [compound 21] | > 100 µM | 94/-/- % Rem. |  |  | 10 µM (≈ 3.83 µg/mL) | 40 µM (≈ 15.3 µg/mL) | 
10 | Nc1nc2ccc(-c3cccnc3)cc2c(=O)n1-c1ccc(C(F)(F)F)cc1 [compound 22] | > 100 µM | 68/-/- % Rem. |  |  | 0.625 µM (≈ 0.239 µg/mL) | 20 µM (≈ 7.65 µg/mL) | 
11 | Cc1cncc(-c2ccc3nc(N)n(-c4ccc(C(F)(F)F)cc4)c(=O)c3c2)c1 [compound 23] | > 100 µM | 87/-/- % Rem. |  |  | > 2 µM | < 5 µM | MIC90 [4]: 2.5 µM (≈ 0.991 µg/mL)
12 | CN(C)c1cccc(-c2ccc3nc(N)n(-c4ccc(C(F)(F)F)cc4)c(=O)c3c2)c1 [compound 27] | > 100 µM | 37/-/- % Rem. |  |  | 2.5 µM (≈ 1.06 µg/mL) | 20 µM (≈ 8.49 µg/mL) | 
13 | Nc1nc2ccc(-c3cccc(C(F)(F)F)c3)cc2c(=O)n1-c1ccc(C(F)(F)F)cc1 [compound 28] | > 100 µM | 88/-/- % Rem. |  |  | 0.75 µM (≈ 0.337 µg/mL) | 40 µM (≈ 18 µg/mL) | 
14 | CS(=O)(=O)c1cccc(-c2ccc3c(=O)n(-c4ccc(C(F)(F)F)cc4)c(N)nc3c2)c1 [compound 30] | > 50 µM | 99/99/99 % Rem. | 99/99/99 % Rem. | 99/99/99 % Rem. | 1.39 µM (≈ 0.639 µg/mL) | < 5 µM | 
15 | C[S+]([O-])c1cccc(-c2ccc3c(=O)n(-c4ccc(C(F)(F)F)cc4)c(N)nc3c2)c1 (stereo not shown) [compound 31] | > 50 µM | 98 % Rem. | 78 % Rem. | 73 % Rem. | 1.32 µM (≈ 0.585 µg/mL) | < 5 µM | 
16 | Nc1nc2cc(-c3cccc(C(F)(F)F)c3)ccc2c(=O)n1-c1ccc(C(F)(F)F)cc1 [compound 32] | > 50 µM | 95 % Rem. | 82 % Rem. | 89 % Rem. | 0.8 µM (≈ 0.359 µg/mL) | < 5 µM | 
17 | CNc1nc2ccc(-c3cccc([S+](C)[O-])c3)cc2c(=O)n1-c1ccc(C(F)(F)F)cc1 (stereo not shown) [compound 40, 2-(Methylamino)-6-(3-(methylsulfinyl)phenyl)-3-(4-(trifluoromethyl)phenyl)quinazolin-4(3H)-one] | > 50 µM | 89 % Rem. | 87 % Rem. | 90 % Rem. | 1.4 µM (≈ 0.64 µg/mL) | 64 µM (≈ 29.3 µg/mL) | 
18 | CNc1nc2ccc(-c3cccc(S(C)(=O)=O)c3)cc2c(=O)n1-c1ccc(C(F)(F)F)cc1 [compound 41, 2-(Methylamino)-6-(3-(methylsulfonyl)phenyl)-3-(4-(trifluoromethyl)phenyl)quinazolin-4(3H)-one] | > 50 µM | 98 % Rem. | 100 % Rem. | 100 % Rem. | > 125 µM | < 5 µM | MIC90 [4]: >125 µM
